The results in this text go back to patent publication US12077503B2, “Substituted cyclic amides and their use as herbicides” (FMC CORPORATION, priority 2015, dated 2024).

Holding throughout (format): in vivo
The test system of test [1] is ragweed (common ragweed, Ambrosia elatior). Description: Test A postemergence. As to conditions: Ambrosia artemisiifolia, post-emergence, 240 h, postemergence; for pest or weed control at 125 g/ha: 125 g ai/ha. Put shortly: (§1)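 Seeds sprayed preemergence with a directed soil spray, or plants at 2 to 10 cm height and one- to two-leaf stage sprayed postemergence, with test chemicals in a non-phytotoxic solvent mixture containing surfactant, in loam soil–sand blend. Injury rated visually against untreated controls after about 10 d in greenhouse, 0 (no effect) to 100 (complete control).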

Test [2] deals with Galium (catchweed bedstraw, Galium aparine). Description: Test A postemergence. As to conditions: Galium, post-emergence, 240 h, postemergence; for pest or weed control at 125 g/ha: 125 g ai/ha. The gist of the method: as §1
The test system of test [3] is blackgrass (Alopecurus myosuroides). Description: Test A postemergence. As to conditions: Alopecurus myosuroides, post-emergence, 240 h, postemergence; for pest or weed control at 125 g/ha: 125 g ai/ha. The gist of the method: as §1
Test [4] concerns wheat (Triticum aestivum). Put plainly: Test A postemergence. The settings on record: Triticum aestivum, post-emergence, 240 h, postemergence; for plant injury at 125 g/ha: 125 g ai/ha. Put shortly: as §1
For another test, the system named is Kochia (Kochia scoparia). Put plainly: Test A postemergence. As to conditions: Bassia scoparia, post-emergence, 240 h, postemergence; for pest or weed control at 125 g/ha: 125 g ai/ha. Put shortly:
as §1

Test [5] relates to ryegrass, Italian (Italian ryegrass, Lolium multiflorum). Description: Test A postemergence. The settings on record: Lolium multiflorum, post-emergence, 240 h, postemergence; for pest or weed control at 125 g/ha: 125 g ai/ha. Put shortly: as §1
Another test concerns corn (Zea mays). Put plainly: Test A postemergence. The settings on record: Zea mays, post-emergence, 240 h, postemergence; for plant injury at 125 g/ha: 125 g ai/ha. Put shortly: as §1
Test [6] deals with giant foxtail (Setaria faberii). Description: Test A postemergence. The settings on record: Setaria faberi, post-emergence, 240 h, postemergence; for pest or weed control at 125 g/ha: 125 g ai/ha. The gist of the method: as §1
In test [7] the test system is barnyardgrass (Echinochloa crus-galli). Description: Test A postemergence. As to conditions: Echinochloa crus-galli, post-emergence, 240 h, postemergence; for pest or weed control at 125 g/ha: 125 g ai/ha. Put shortly: as §1
Test [8] deals with pigweed (Amaranthus retroflexus). Description: Test A postemergence. The settings on record: Amaranthus retroflexus, post-emergence, 240 h, postemergence; for pest or weed control at 125 g/ha: 125 g ai/ha. The gist of the method:
as §1

In test [9] the test system is sedge, umbrella (small-flower umbrella sedge, Cyperus difformis). Description: Test B flooded paddy test. The settings on record: Cyperus difformis, 250 g ai/ha, Flood, read-out: Sedge, Umbrella plant response rating. The gist of the method:
(§2)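 Flooding to 3 cm over soil accompanied treatment, which consisted of adding compound to the standing water around 2-leaf plants; depth was then maintained. Visual assessment versus controls followed at 13 to 15 d (scale 0–100, 0 meaning no effect).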

For another test, the system named is rice (Oryra sativa). Put plainly: Test B flooded paddy test. As to conditions: Oryza sativa, 250 g ai/ha, Flood, read-out: Rice plant response rating. Put shortly:
as §2

Test [10] concerns ducksalad (Heteranthera limosa). Put plainly: Test B flooded paddy test. The settings on record: Heteranthera limosa, 250 g ai/ha, Flood, read-out: Ducksalad plant response rating. Put shortly:
as §2

Test [11] concerns barnyardgrass (Echinochloa crus-galli). Description: Test B flooded paddy test. As to conditions: Echinochloa crus-galli, 250 g ai/ha, Flood, read-out: Barnyardgrass plant response rating. The gist of the method: as §2
The test system of test [12] is giant foxtail (Setaria faberii). Description: Test A preemergence. The settings on record: Setaria faberi, pre-emergence, 240 h; for pest or weed control at 125 g/ha: 125 g ai/ha; for pest or weed control at 500 g/ha: 500 g ai/ha. Put shortly: as §1
The mark [13] stands for this setting: 0 to 100 scale where 0 is no effect and 100 is complete control.
Where [14] appears, read: preemergence, 0 to 100 scale where 0 is no effect and 100 is complete control, read-out: Foxtail, Giant plant response rating.
The mark [15] stands for this setting: scale of 0 to 100 where 0 is no effect and 100 is complete control.

Read-outs that look alike come from different tables or passages of the source.

In the case of `CN1CC(c2cccc(/C=C/Cl)c2)C(C(=O)Nc2ccccc2F)C1=O` (stereo not drawn) [Compound 1129], the pest or weed control at 125 g/ha in test [1] (visual injury on 0 to 100 scale (0 no effect, 100 complete control), approx. 10 d, read-out: Ragweed plant response rating) turned out to be 0%; in test [2] (visual injury on 0 to 100 scale (0 no effect, 100 complete control), approx. 10 d, read-out: Galium plant response rating) it was 0%; in [3] (visual injury on 0 to 100 scale (0 no effect, 100 complete control), approx. 10 d, read-out: Blackgrass plant response rating), 0%; in the test with Kochia (Kochia scoparia) (visual injury on 0 to 100 scale (0 no effect, 100 complete control), approx. 10 d, read-out: Kochia plant response rating), 0%; in test [5] (visual injury on 0 to 100 scale (0 no effect, 100 complete control), approx. 10 d, read-out: Ryegrass, Italian plant response rating) it was 0%; in test [6] (visual injury on 0 to 100 scale (0 no effect, 100 complete control), approx. 10 d, read-out: Foxtail, Giant plant response rating) it was 70%. The pest or weed control at 125 g/ha is 40% in test [7] (visual injury on 0 to 100 scale (0 no effect, 100 complete control), approx. 10 d, read-out: Barnyardgrass plant response rating); 0% in test [8] (visual injury on 0 to 100 scale (0 no effect, 100 complete control), approx. 10 d, read-out: Pigweed plant response rating); 90% in [12] (preemergence, 0 to 100 scale where 0 is no effect and 100 is complete control, approx. 10 d, read-out: Foxtail, Giant plant response rating). In addition, the pest or weed control at 500 g/ha in [1] (500 g ai/ha, 0 to 100 scale, 0 is no effect, 100 is complete control, read-out: Ragweed plant response rating) is 0%; in [2] (500 g ai/ha, 0 to 100 scale, 0 is no effect, 100 is complete control, read-out: Galium plant response rating), 0%; in test [3] (500 g ai/ha, 0 to 100 scale, 0 is no effect, 100 is complete control, read-out: Blackgrass plant response rating), 0%; in the test with Kochia (Kochia scoparia) (500 g ai/ha, 0 to 100 scale, 0 is no effect, 100 is complete control, read-out: Kochia plant response rating), 0%; in test [5] (500 g ai/ha, 0 to 100 scale, 0 is no effect, 100 is complete control, read-out: Ryegrass, Italian plant response rating), 0%; in [6] (500 g ai/ha, 0 to 100 scale, 0 is no effect, 100 is complete control, read-out: Foxtail, Giant plant response rating), 90%. Besides, the pest or weed control at 500 g/ha in test [7] (500 g ai/ha, 0 to 100 scale, 0 is no effect, 100 is complete control, read-out: Barnyardgrass plant response rating) was 90%; in test [8] (500 g ai/ha, 0 to 100 scale, 0 is no effect, 100 is complete control, read-out: Pigweed plant response rating), 0%; in [12] (setting [14]), 90%. Moreover, the plant injury at 125 g/ha stood at 0% in [4] (visual injury on 0 to 100 scale (0 no effect, 100 complete control), approx. 10 d, read-out: Wheat plant response rating) and 0% in the test on corn (Zea mays) (visual injury on 0 to 100 scale (0 no effect, 100 complete control), approx. 10 d, read-out: Corn plant response rating). For the same compound, the plant injury at 500 g/ha in test [4] (500 g ai/ha, 0 to 100 scale, 0 is no effect, 100 is complete control, read-out: Wheat plant response rating) worked out at 0%; in the test with corn (Zea mays) (500 g ai/ha, 0 to 100 scale, 0 is no effect, 100 is complete control, read-out: Corn plant response rating), 0%. The pest or weed control at 250 g/ha in test [9] (setting [13]) was found to be 0%; in the test on rice (Oryra sativa) (setting [13]) it was 0%; in test [10] (setting [13]), 70%; in [11] (setting [13]) it was 20%.
Consider `COc1cc(C(F)(F)F)ccc1[C@H]1CN(C)C(=O)[C@@H]1C(=O)Nc1ccccc1SC` [Compound 860], for which the pest or weed control at 125 g/ha in [1] (visual injury rating after approximately 10 d, read-out: Ragweed plant response rating (0 to 100 scale, 0 no effect, 100 complete control)) worked out at 0%; in test [2] (visual injury rating after approximately 10 d, read-out: Galium plant response rating (0 to 100 scale, 0 no effect, 100 complete control)), 20%; in test [3] (visual injury rating after approximately 10 d, read-out: Blackgrass plant response rating (0 to 100 scale, 0 no effect, 100 complete control)), 0%; in the test on Kochia (Kochia scoparia) (visual injury rating after approximately 10 d, read-out: Kochia plant response rating (0 to 100 scale, 0 no effect, 100 complete control)), 0%; in [5] (visual injury rating after approximately 10 d, read-out: Ryegrass, Italian plant response rating (0 to 100 scale, 0 no effect, 100 complete control)), 0%; in test [6] (visual injury rating after approximately 10 d, read-out: Foxtail, Giant plant response rating (0 to 100 scale, 0 no effect, 100 complete control)), 60%. Further, the pest or weed control at 125 g/ha was 30% in [7] (visual injury rating after approximately 10 d, read-out: Barnyardgrass plant response rating (0 to 100 scale, 0 no effect, 100 complete control)); 0% in [8] (visual injury rating after approximately 10 d, read-out: Pigweed plant response rating (0 to 100 scale, 0 no effect, 100 complete control)); 90% in test [12] (setting [14]). Besides, the plant injury at 125 g/ha was determined as 20% in [4] (visual injury rating after approximately 10 d, read-out: Wheat plant response rating (0 to 100 scale, 0 no effect, 100 complete control)) and 0% in the test with corn (Zea mays) (visual injury rating after approximately 10 d, read-out: Corn plant response rating (0 to 100 scale, 0 no effect, 100 complete control)). Moreover, the pest or weed control at 250 g/ha in test [9] (setting [15]) came to 0%; in the test with rice (Oryra sativa) (setting [15]) it was 0%; in [10] (setting [15]), 90%; in test [11] (setting [15]), 0%. In addition, in [12] (Preemergence, visual injury vs untreated controls after approximately 10 d, read-out: Foxtail, Giant plant response rating (0 to 100 scale where 0 is no effect and 100 is complete control)), the pest or weed control at 500 g/ha is 90%.
